Data taken from ChEMBL document CHEMBL3991601, “The target landscape of clinical kinase drugs” (Science, 2017).
Active and inactive are the calls of the source.

Tests used:
[1] = target: Proto-oncogene tyrosine-protein kinase receptor Ret (Homo sapiens, UniProt P07949)
[2] = target: Serine/threonine-protein kinase PAK 6 (Homo sapiens, UniProt Q9NQU5)
[3] = target: T1, Ephrin type-A receptor 1 (Homo sapiens, UniProt P21709)
T1 sequence (P21709 whole entry): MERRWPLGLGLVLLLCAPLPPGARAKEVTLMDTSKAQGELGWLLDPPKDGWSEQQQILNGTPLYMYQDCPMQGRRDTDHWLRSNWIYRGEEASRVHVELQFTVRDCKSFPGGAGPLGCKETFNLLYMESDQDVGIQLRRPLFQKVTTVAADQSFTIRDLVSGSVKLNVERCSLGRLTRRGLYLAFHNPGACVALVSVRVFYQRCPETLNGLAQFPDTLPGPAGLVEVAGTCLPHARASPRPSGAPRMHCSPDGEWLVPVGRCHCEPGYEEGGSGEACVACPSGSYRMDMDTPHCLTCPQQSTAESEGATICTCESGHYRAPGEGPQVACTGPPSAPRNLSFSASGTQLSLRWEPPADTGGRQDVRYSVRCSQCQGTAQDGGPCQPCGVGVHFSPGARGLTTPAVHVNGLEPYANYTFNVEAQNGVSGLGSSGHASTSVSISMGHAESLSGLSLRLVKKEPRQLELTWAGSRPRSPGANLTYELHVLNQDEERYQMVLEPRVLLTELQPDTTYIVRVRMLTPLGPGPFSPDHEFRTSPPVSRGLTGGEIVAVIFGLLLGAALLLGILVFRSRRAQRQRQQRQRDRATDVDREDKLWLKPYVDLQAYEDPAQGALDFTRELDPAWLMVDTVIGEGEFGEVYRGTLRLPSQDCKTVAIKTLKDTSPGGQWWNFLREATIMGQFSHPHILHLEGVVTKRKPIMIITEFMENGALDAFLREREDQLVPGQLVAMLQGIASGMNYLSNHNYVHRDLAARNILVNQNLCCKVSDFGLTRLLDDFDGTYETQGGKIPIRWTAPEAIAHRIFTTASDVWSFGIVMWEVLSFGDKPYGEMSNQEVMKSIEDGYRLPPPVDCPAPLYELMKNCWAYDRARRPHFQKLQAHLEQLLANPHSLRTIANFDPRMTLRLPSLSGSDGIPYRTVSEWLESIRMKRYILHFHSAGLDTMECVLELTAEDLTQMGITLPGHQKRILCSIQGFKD

[4] = target: Dual specificity protein kinase CLK3 (Homo sapiens, UniProt P49761); assay type: subcellular, K-562, COLO 205, SK-N-BE(2) and MV-4-11, Cell lysate; details: read-out: Kd apparent
[5] = target: T2, Adenine phosphoribosyltransferase (Homo sapiens, UniProt P07741)
T2 sequence (P07741 whole entry): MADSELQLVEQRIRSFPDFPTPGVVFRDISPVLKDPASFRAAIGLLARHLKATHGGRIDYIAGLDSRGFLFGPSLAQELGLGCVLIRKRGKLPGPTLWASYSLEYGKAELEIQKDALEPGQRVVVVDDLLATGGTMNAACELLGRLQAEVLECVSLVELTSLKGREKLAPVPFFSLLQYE

[6] = target: Serine/threonine-protein kinase Nek7 (Homo sapiens, UniProt Q8TDX7)
[7] = target: High affinity nerve growth factor receptor (Homo sapiens, UniProt P04629)
[8] = target: Cell division cycle 7-related protein kinase (Homo sapiens, UniProt O00311)
[9] = target: Serine/threonine-protein kinase MRCK gamma (Homo sapiens, UniProt Q6DT37)
[10] = target: T3, Inhibitor of nuclear factor kappa-B kinase subunit epsilon (Homo sapiens, UniProt Q14164)
T3 sequence (Q14164 whole entry): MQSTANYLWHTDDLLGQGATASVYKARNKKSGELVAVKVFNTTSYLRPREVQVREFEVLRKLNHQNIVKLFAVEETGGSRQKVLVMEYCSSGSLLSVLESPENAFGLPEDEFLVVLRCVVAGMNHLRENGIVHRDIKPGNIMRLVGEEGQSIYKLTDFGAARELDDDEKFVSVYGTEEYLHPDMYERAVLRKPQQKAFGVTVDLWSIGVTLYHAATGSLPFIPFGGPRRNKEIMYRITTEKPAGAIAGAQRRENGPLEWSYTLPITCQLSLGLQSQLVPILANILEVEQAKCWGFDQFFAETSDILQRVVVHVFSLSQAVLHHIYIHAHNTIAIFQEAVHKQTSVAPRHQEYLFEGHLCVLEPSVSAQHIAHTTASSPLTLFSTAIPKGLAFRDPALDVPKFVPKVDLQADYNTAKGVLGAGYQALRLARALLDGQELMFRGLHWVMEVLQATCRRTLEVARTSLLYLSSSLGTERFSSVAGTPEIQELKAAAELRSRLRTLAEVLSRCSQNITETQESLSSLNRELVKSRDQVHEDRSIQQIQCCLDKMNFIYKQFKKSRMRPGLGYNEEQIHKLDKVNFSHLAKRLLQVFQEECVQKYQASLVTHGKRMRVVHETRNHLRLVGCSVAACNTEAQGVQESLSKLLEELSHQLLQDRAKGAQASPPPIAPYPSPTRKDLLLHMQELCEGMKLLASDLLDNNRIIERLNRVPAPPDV

[11] = target: Serine/threonine-protein kinase 24 (Homo sapiens, UniProt Q9Y6E0)
Note: in the data inactive means no Kd found up to 30 µM.

Sequence of Serine/threonine-protein kinase Nek7 (Q8TDX7 whole entry): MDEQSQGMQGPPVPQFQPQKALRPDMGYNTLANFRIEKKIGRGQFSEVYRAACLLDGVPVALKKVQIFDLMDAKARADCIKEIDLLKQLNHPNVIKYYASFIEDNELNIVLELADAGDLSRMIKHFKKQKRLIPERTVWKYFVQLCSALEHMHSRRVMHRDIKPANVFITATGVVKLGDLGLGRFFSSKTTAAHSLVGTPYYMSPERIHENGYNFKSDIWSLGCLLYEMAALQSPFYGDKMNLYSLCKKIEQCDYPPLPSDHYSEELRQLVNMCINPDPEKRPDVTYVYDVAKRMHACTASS
Sequence of High affinity nerve growth factor receptor (P04629 whole entry): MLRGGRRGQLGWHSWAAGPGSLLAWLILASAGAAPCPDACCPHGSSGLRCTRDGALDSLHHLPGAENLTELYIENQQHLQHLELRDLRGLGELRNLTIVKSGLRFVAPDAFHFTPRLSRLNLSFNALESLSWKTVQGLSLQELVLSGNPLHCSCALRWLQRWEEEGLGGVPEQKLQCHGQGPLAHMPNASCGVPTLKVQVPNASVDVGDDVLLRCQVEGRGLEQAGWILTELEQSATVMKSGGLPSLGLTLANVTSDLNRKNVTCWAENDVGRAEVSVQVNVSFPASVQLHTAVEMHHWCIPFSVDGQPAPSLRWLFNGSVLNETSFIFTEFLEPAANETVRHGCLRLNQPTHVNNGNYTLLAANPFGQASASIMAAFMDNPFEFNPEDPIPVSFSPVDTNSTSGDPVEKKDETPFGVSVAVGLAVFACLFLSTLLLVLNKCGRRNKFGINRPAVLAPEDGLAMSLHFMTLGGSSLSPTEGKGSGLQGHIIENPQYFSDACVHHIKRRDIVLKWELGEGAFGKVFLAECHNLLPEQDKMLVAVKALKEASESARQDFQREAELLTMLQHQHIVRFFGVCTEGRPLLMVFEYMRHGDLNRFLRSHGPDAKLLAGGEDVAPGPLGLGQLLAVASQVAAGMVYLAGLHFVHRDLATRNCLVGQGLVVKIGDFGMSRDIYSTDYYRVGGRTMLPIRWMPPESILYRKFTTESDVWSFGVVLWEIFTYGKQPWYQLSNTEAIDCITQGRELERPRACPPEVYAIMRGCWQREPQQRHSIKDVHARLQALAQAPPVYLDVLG
Sequence of Serine/threonine-protein kinase 24 (Q9Y6E0 whole entry): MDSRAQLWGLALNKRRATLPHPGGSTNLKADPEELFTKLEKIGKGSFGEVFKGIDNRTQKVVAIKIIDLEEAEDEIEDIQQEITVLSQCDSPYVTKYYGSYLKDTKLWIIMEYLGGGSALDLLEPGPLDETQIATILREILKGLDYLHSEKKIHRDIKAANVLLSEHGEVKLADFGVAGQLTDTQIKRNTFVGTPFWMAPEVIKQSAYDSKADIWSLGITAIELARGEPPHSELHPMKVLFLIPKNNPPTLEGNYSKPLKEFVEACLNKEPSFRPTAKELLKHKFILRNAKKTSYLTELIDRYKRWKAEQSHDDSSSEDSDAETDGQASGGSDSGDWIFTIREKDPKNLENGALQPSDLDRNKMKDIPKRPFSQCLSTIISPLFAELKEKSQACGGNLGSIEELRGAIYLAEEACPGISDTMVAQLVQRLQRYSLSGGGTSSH
Sequence of Dual specificity protein kinase CLK3 (P49761 whole entry): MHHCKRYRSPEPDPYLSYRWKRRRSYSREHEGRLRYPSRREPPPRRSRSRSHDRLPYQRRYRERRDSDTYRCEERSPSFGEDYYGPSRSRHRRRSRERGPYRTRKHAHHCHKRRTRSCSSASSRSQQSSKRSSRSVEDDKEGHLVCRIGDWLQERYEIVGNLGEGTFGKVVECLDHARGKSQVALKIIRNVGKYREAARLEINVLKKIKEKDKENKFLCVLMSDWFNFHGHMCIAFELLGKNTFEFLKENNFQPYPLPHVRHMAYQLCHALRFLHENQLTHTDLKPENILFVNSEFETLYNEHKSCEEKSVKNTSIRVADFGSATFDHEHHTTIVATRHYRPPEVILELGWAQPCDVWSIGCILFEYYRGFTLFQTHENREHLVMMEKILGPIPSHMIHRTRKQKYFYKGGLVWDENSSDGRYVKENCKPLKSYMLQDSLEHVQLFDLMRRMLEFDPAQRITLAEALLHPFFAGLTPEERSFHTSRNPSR
Sequence of Serine/threonine-protein kinase PAK 6 (Q9NQU5 whole entry): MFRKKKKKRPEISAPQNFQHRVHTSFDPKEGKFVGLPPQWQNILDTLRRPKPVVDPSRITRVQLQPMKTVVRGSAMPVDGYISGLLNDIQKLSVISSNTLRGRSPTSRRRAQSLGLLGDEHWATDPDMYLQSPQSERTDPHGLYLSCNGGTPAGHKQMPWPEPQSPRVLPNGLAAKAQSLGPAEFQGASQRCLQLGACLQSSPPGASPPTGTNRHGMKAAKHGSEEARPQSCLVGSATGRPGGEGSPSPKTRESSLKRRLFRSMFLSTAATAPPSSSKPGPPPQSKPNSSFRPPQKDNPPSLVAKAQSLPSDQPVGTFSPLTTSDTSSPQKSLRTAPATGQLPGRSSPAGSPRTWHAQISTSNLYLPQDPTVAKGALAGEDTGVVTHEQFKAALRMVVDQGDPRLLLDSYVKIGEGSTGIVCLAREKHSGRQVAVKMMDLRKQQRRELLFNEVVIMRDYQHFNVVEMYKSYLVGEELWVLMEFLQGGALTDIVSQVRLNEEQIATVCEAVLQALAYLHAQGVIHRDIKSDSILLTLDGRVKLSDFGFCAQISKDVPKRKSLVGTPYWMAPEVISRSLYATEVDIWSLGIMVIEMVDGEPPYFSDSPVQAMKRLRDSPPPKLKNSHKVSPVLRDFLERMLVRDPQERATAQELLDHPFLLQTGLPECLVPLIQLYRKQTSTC
Sequence of Serine/threonine-protein kinase MRCK gamma (Q6DT37 whole entry): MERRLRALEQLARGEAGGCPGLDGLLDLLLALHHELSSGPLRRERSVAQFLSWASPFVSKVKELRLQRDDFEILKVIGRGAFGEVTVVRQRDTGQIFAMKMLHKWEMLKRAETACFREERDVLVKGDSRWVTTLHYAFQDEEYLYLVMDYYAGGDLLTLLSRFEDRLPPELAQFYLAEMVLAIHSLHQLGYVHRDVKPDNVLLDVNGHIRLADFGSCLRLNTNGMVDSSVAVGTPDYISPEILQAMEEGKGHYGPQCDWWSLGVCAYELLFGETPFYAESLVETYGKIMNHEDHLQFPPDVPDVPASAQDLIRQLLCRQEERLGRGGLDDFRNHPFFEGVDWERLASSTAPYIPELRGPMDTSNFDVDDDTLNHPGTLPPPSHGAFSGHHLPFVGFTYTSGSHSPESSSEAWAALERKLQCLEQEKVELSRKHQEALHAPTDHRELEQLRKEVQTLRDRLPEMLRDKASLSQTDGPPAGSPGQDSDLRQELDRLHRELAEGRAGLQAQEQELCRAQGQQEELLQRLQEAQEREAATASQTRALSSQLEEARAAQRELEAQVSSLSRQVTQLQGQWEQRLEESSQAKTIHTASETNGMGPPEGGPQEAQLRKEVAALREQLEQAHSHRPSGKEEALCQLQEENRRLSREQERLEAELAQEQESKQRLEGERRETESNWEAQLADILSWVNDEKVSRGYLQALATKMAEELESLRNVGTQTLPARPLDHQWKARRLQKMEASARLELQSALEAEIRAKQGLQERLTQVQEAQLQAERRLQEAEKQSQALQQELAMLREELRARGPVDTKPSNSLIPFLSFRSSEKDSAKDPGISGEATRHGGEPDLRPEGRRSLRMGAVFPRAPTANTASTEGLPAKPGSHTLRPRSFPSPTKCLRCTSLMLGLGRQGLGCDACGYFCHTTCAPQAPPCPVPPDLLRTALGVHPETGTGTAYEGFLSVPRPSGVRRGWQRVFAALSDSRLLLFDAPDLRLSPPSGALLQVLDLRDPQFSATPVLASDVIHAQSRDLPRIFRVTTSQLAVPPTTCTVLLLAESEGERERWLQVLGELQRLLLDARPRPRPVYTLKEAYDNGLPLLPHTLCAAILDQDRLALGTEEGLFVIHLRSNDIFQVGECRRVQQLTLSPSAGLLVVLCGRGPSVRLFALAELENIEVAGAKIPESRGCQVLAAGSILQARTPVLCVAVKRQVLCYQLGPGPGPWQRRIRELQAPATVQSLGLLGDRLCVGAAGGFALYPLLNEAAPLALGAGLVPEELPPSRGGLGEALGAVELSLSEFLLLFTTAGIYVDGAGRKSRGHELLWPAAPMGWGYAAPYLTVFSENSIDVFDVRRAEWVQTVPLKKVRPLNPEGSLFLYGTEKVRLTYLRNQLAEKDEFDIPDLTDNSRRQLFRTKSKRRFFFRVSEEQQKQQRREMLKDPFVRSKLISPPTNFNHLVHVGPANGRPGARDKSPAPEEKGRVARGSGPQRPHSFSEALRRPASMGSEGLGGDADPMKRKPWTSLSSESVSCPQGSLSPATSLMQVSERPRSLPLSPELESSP
Sequence of Cell division cycle 7-related protein kinase (O00311 whole entry): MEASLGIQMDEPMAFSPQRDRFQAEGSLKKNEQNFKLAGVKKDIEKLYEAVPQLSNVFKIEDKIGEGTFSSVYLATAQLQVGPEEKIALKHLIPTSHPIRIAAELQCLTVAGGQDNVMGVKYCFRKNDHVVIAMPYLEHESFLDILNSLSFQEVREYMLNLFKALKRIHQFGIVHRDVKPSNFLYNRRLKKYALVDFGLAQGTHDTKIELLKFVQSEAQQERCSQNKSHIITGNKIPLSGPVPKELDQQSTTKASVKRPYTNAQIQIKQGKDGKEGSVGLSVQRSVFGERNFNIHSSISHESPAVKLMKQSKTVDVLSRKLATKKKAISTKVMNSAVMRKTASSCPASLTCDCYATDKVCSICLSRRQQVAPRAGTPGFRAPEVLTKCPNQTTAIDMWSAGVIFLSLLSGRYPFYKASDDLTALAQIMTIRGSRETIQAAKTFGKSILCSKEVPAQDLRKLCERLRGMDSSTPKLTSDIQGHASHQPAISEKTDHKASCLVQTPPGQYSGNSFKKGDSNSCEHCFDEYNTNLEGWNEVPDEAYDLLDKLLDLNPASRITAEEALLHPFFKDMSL

Row | SMILES | Kd [1] | Kd [2] | Kd [3] | Kd [4] | Kd [5] | Kd [6] | Kd [7] | Kd [8] | Kd [9] | Kd [10] | Kd [11]
1 | Cn1cc(-c2ccc3nnc(C(F)(F)c4ccc5ncccc5c4)n3n2)cn1 [JNJ-38877605] | > 30 µM (inactive) | > 30 µM (inactive) | > 30 µM (inactive) | > 30 µM (inactive) | > 30 µM (inactive) | > 30 µM (inactive) | > 30 µM (inactive) | > 30 µM (inactive) | > 30 µM (inactive) | > 30 µM (inactive) | –
2 | CNS(=O)(=O)Nc1nccc(Cc2c(C)c3ccc(Oc4ncccn4)cc3oc2=O)c1F [AVUTOMETINIB] | > 30 µM (inactive) | – | – | > 30 µM (inactive) | > 30 µM (inactive) | > 30 µM (inactive) | – | > 30 µM (inactive) | > 30 µM (inactive) | > 30 µM (inactive) | > 30 µM (inactive)
3 | CNC(=O)CN1CCC(Oc2cc3c(Nc4cccc(Cl)c4F)ncnc3cc2OC)CC1 [SAPITINIB] | 0.39 µM (active) | > 30 µM (inactive) | 0.015 µM | > 30 µM (inactive) | – | – | > 30 µM (inactive) | > 30 µM (inactive) | > 30 µM (inactive) | > 30 µM (inactive) | > 30 µM (inactive)
4 | COc1cc(OC)c(/C=C/S(=O)(=O)Cc2ccc(OC)c(NCC(=O)O)c2)c(OC)c1 [RIGOSERTIB] | > 30 µM (inactive) | > 30 µM (inactive) | > 30 µM (inactive) | 0.04 µM | – | > 30 µM (inactive) | > 30 µM (inactive) | > 30 µM (inactive) | > 30 µM (inactive) | > 30 µM (inactive) | > 30 µM (inactive)
5 | O=C1NC(=O)/C(=C/c2ccc3nccc(-c4ccncc4)c3c2)S1 [GSK-1059615] | > 30 µM (inactive) | > 30 µM (inactive) | > 30 µM (inactive) | > 30 µM (inactive) | – | > 30 µM (inactive) | > 30 µM (inactive) | > 30 µM (inactive) | > 30 µM (inactive) | > 30 µM (inactive) | > 30 µM (inactive)
6 | OCCn1cc(-c2cnc3nnn(Cc4ccc5ncccc5c4)c3n2)cn1 [PF-04217903] | – | > 30 µM (inactive) | > 30 µM (inactive) | > 30 µM (inactive) | > 30 µM (inactive) | > 30 µM (inactive) | – | > 30 µM (inactive) | > 30 µM (inactive) | – | > 30 µM (inactive)
7 | CN1CC[C@@H](c2c(O)cc(O)c3c(=O)cc(-c4ccccc4Cl)oc23)[C@@H]1CO | > 30 µM (inactive) | > 30 µM (inactive) | > 30 µM (inactive) | > 30 µM (inactive) | > 30 µM (inactive) | > 30 µM (inactive) | > 30 µM (inactive) | > 30 µM (inactive) | – | > 30 µM (inactive) | > 30 µM (inactive)
8 | COC(=O)N[C@@H](C)CNc1nccc(-c2cn(C(C)C)nc2-c2cc(Cl)cc(NS(C)(=O)=O)c2F)n1 [ENCORAFENIB] | > 30 µM (inactive) | – | > 30 µM (inactive) | > 30 µM (inactive) | > 30 µM (inactive) | – | > 30 µM (inactive) | > 30 µM (inactive) | > 30 µM (inactive) | > 30 µM (inactive) | > 30 µM (inactive)
9 | COCCNCc1ccc(-c2cc3nccc(Oc4ccc(NC(=S)NC(=O)Cc5ccc(F)cc5)cc4F)c3s2)nc1 [GLESATINIB] | > 30 µM (inactive) | > 30 µM (inactive) | > 30 µM (inactive) | > 30 µM (inactive) | > 30 µM (inactive) | > 30 µM (inactive) | > 30 µM (inactive) | > 30 µM (inactive) | > 30 µM (inactive) | > 30 µM (inactive) | > 30 µM (inactive)
10 | CO[C@H]1C[C@@H]2CC[C@@H](C)[C@@](O)(O2)C(=O)C(=O)N2CCCC[C@H]2C(=O)O[C@H]([C@H](C)C[C@@H]2CC[C@@H](OCCO)[C@H](OC)C2)CC(=O)[C@H](C)/C=C(\C)[C@@H](O)[C@@H](OC)C(=O)[C@H](C)C[C@H](C)/C=C/C=C/C=C/1C [EVEROLIMUS] | > 30 µM (inactive) | – | > 30 µM (inactive) | > 30 µM (inactive) | > 30 µM (inactive) | > 30 µM (inactive) | > 30 µM (inactive) | > 30 µM (inactive) | > 30 µM (inactive) | > 30 µM (inactive) | –
11 | CC(=O)Nc1cccc(-n2c(=O)n(C3CC3)c(=O)c3c(Nc4ccc(I)cc4F)n(C)c(=O)c(C)c32)c1 [TRAMETINIB] | > 30 µM (inactive) | > 30 µM (inactive) | > 30 µM (inactive) | > 30 µM (inactive) | > 30 µM (inactive) | – | > 30 µM (inactive) | > 30 µM (inactive) | > 30 µM (inactive) | > 30 µM (inactive) | > 30 µM (inactive)
12 | O=C(O)[C@]1(Cc2cccc(Nc3nccs3)n2)CC[C@@H](Oc2cccc(Cl)c2F)CC1 [MK-5108] | 0.388 µM (active) | > 30 µM (inactive) | – | > 30 µM (inactive) | – | > 30 µM (inactive) | > 30 µM (inactive) | > 30 µM (inactive) | > 30 µM (inactive) | > 30 µM (inactive) | > 30 µM (inactive)
13 | O=C(Nc1ccc(-c2ccnc(Nc3ccc(N4CCOCC4)cc3)n2)cc1)C1CCCN1 (stereo not drawn) [XL-019] | 1.33 µM (active) | > 30 µM (inactive) | > 30 µM (inactive) | > 30 µM (inactive) | > 30 µM (inactive) | > 30 µM (inactive) | > 30 µM (inactive) | > 30 µM (inactive) | > 30 µM (inactive) | 0.342 µM (active) | > 30 µM (inactive)
14 | C[C@@H]1CN(Cc2ccc(F)cc2)[C@@H](C)CN1C(=O)c1cc2c(C(=O)C(=O)N(C)C)cn(C)c2cc1Cl [TALMAPIMOD] | > 30 µM (inactive) | > 30 µM (inactive) | > 30 µM (inactive) | > 30 µM (inactive) | > 30 µM (inactive) | – | > 30 µM (inactive) | > 30 µM (inactive) | > 30 µM (inactive) | > 30 µM (inactive) | –
15 | COc1cc(CCc2cc(NC(=O)c3ccc(N4C[C@@H](C)N[C@@H](C)C4)cc3)n[nH]2)cc(OC)c1 [AZD-4547] | 0.029 µM (active) | > 30 µM (inactive) | > 30 µM (inactive) | > 30 µM (inactive) | > 30 µM (inactive) | – | 2.25 µM | > 30 µM (inactive) | > 30 µM (inactive) | > 30 µM (inactive) | > 30 µM (inactive)
